Key:
Parkin = Parkin (Homo sapiens, UniProt O60260); assay: Parkin pUB Auto-ubiquitinylation Assay (TR-FRET); assay type: biochemical; details: for EC50: Parkin activation, pUb activated Parkin, read-out: Auto-ubiq EC50 (μM) [Example 3]
Source text: A Parkin pUB Auto-ubiquitinylation Assay is used to evaluate a compound's potency to activate Parkin's ability to Auto-ubiquitinylate itself.
The principle of this assay is that the E3 Ligase Parkin catalyzes the transfer of Ubiquitin to target proteins, but also has the ability to auto-ubiquitinylate itself. The phospho-Ubiquition (pUb) added to the assay alters the Parkin to a state where small molecule activators can enable the Parkin to auto-ubiquitinylate though the E1-E2 cascade reaction. The use of a Eu cryptate Ubiquition and anti 6His-d2 that binds to the His tagged Parkin will give a signal when the Eu cryptate Ubiquition is auto-ubiquitinylate onto the Parkin which can be monitored by TR-FRET.
Similar to the Activity-based probe assay in Example 2, screening for activating compounds can be distinguished from the controls as follows: • 100% activation signal=pUb activated Parkin+40 nM control activator in DMSO. • 0% activation signal=pUb activated Parkin+DMSO only. • Parkin activators can be identified by an increase of the 0% activation signal TR-FRET signal. Materials: • Assay Plate: White 384 well plate (Corning 3572) • Enzyme 1: E1 (Ubiquitin-activating enzyme/UBE1 Boston Biochem E-305) • Enzyme 2: E2 (UBcH7/Ube2L3 Boston Biochem E2-640) • Enzyme 3: Parkin-His tagged 203 μM (10.5 mg/ml) • pUb: Phospho-Ubiquitin (S65) (Boston Biochem U-102) • Eu Cryptate Reagent: Ubiquitin Eu (CisBio 61UBIKLA) • DMSO: DMSO (Sigma-34869-2.5L) • Reaction Buffer: 50 mM HEPES, 50 mM NaCl, 1 mM MgCl2, 0.005% Tween 20, 0.1% PF-127 (Fisher Scientific 50-310-494), pH 8.5 • Detection Buffer: 50 mM HEPES, 50 mM NaCl, 800 mM KF, 5 mM EDTA, 0.005% Tween 20, 0.1% PF-127, pH 8.5 • Detection Reagent Z: 13.4 nM Anti-6His-d2 in detection buffer • d2 Reagent: Anti-6His-d2 (CisBio 61HISDLA)
Enzyme Reaction (15 min pre-incubation with Parkin, pUb and activator only) • Parkin: 196 nM • pUb: 196 nM • DMSO: 1% DMSO • E1: 5 nM • E2: 50 nM • Ubiquitin Eu: 8.8 nM • Reaction time: 120 minutes • Temperature: 22° C. • Total volume: 10 μl reaction
Take 10 μl of Enzyme Reaction above and add 10 μl detection Reagent Z under the following conditions:
Assay Procedure: • 1) Load assay plate wells with 4.9 μl 400.0 nM Parkin, 400 nM pUb in reaction buffer by use of Eppendorf 12-channel pipette. • 2) Deliver 0.1 μl 100× activator candidates in DMSO by use of Echo 555 compound dispenser. Highest 100× concentration=100 μm and then twofold dilutions. Add each compound and control in duplicate wells. • 3) Spin 1000 rpm, 2 minutes, at room temp. • 4) Incubate plate for 15 minutes at room temp. • 5) Add 5 μl 10 nM E1, 100 nM E2, 17.6 nM Ubiquitin Eu and 2 mM ATP in Reaction Buffer by use of Eppendorf 12-channel pipette. • 6) Spin 1000 rpm, 2 minutes, at room temp. • 7) Incubate plate for 120 minutes at room temp. • 8) Add 10 μl 13.4 nM anti his d2 in detection buffer by use of Eppendorf 12-channel pipette. • 9) Spin 1000 rpm, 2 minutes, at room temp. • 10) Incubate plate for 120 minutes at room temp. • 11) Read plates on Perkin Elmer Envision instrument with the following parameters: • LANCE dual laser protocol loaded into the Envision® software • Top Mirror: LANCE/DELFIA Duel/Bias (Bar code 446) • Emission Filter: APC 665 EM (Bar code 205) • 2nd Emission Filter: Europium 615 EM (Bar code 203) • Read 655 nm (channel 1) and 615 nm (channel 2) wavelengths on Envision®
Data Analysis: The Data can be read in CSV files. There are two tables in those CSV files, which are the values of 655 nm (channel 1) and 615 nm (channel 2) wavelengths respectively. The data is converted to an HTRF Ratio=(Channel 1/Channel 2)*10,000
The average of all the 0 uM controls (DMSO only)=BKGD (Background—0% activation). Subtract BKGD from each HTRF Ratio value=HTRF-BKGD. The average of all the […] control activator in DMSO controls=Max (100% activation). The following equation is then used to calculate % Activation for each well/candidate as follows: % Activation=(HTRF-BKGD/Max)*100. […]

[1] = Microsomal Stability Assay, rat liver microsomes; assay type: in vitro ADME; details: for half-life at 1 μM: rat, liver microsomes, pH 7.4, 1 μM compound, 1.0 mg/mL microsome, NADPH, read-out: RLM t1/2
Experimental: Compounds were also tested for metabolic stability in both rat liver microsomes (RLM) and human liver microsomes (HLM) and their half-life calculated (See Table 5). The assay was performed as follows. The total volume for each incubation was 250 μL. A 100 μM DMSO solution of compound (diluted from 10 mM stock solution) was spiked into 50 mM KH2PO4 (pH 7.4) buffer containing liver microsome at a concentration of 1.0 mg/mL. The reaction was initiated by the addition of 50 μL of 1 mM NADPH. The final concentration of each compound was 1 μM (1% DMSO). The positive controls, phenacetin for CYP1A2, diclofenac for CYP2C9, omeprazole for CYP2C19, dextromethorphan for CYP2D6 and midazolam for CYP3A4 were added to a separate tube with the final substrate concentrations of 1 μM (1% DMSO) for evaluating the enzyme activities in the liver microsomes. At 0, 15, 30 and 60 min, an aliquot of 15 μL reaction mixtures were removed and 200 μL of methanol (with internal standard of 25 ng/mL propranolol) was added to quench the reaction. The resulting mixture was centrifuged and supernatant was used for LC-MS/MS analysis.
The signals for each compound, or the metabolites for the probe substrates and the internal standard were integrated and the peak area ratios to internal standard were generated. Percent parent remaining at a specified timepoint was calculated based on the peak area ratios at time 0 (as 100%) for in vitro metabolic stability studies in liver microsome and hepatocyte. The observed rate constant (kobs) for the metabolism of substrates was calculated by plotting the natural log of percentage substrate remaining versus time of incubation with the slope being kobs. The half-life (T1/2) was calculated according to the following equation: T1/2=0.693/kobs

Chain of Parkin (O60260 whole entry, other chains not shown): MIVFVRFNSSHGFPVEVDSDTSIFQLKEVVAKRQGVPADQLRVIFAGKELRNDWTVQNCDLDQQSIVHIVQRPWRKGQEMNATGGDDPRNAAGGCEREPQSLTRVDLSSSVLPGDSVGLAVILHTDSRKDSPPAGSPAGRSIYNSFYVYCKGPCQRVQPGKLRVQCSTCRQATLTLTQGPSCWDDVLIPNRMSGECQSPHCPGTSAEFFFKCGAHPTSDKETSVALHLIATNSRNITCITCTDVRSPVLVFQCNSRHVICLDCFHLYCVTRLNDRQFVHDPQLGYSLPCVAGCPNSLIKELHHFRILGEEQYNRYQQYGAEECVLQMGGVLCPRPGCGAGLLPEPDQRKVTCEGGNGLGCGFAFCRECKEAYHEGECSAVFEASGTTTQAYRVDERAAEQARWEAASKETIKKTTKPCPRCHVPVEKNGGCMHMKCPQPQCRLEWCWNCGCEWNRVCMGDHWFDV

SMILES	EC50 (Parkin) [µM]	half-life at 1 μM [1] [min]	other results
O=C(Nc1nc(NC(=O)c2cc3ccccc3s2)n(-c2ccccc2)n1)c1ccccc1 [Compound A2]	> 40	36	–
O=C(Nc1nc(NC(=O)c2ccccc2)n(-c2ccccc2)n1)c1ccccc1 [Compound A, N,N′-(1-phenyl-1H-1,2,4-triazole-3,5-diyl)dibenzamide]	2.3	20.6	Parkin activity in an auto-ubiquitination assay (Parkin): increases
O=C(Nc1nc(NC(=O)c2ccc3ccccc3n2)n(-c2ccccc2)n1)c1ccccc1 [Compound B2]	> 40	2	–
Cc1ccccc1C(=O)Nc1nc(NC(=O)/C=C/c2ccccc2)n(-c2ccccc2)n1 [Compound C2]	> 40	12	–
O=C(/C=C/c1ccccc1)Nc1nc(NC(=O)c2ccccc2)nn1-c1ccccc1 [Compound C, N-(5-cinnamamido-1-phenyl-1H-1,2,4-triazol-3-yl)benzamide]	> 40	14.1	Parkin activity in an auto-ubiquitination assay (Parkin): increases; In vitro RLM ([1]; as repeated in the PK tables): 14.1 min
Cc1ccccc1C(=O)Nc1nc(NC(=O)c2ccccc2C)n(-c2ccccc2)n1 [Compound F, 2-methyl-N-[5-[(2-methylbenzoyl)amino]-1-phenyl-1,2,4-triazol-3-yl]benzamide]	> 40	630	In vitro RLM (min) ([1]; as repeated in the PK tables): Stable
O=C(Nc1nc(Nc2ncnc3ccccc23)n(-c2ccccc2)n1)c1ccccc1 [Compound L, N-[1-phenyl-5-(quinazolin-4-ylamino)-1,2,4-triazol-3-yl]benzamide]	> 40	59.2	–
O=C(Nc1nc(NC(=O)c2ccc(I)cc2)n(-c2ccccc2)n1)c1ccc(I)cc1 [D]	> 40	–	–
CN(C(=O)c1ccccc1)c1nc(NC(=O)c2ccccc2)n(-c2ccccc2)n1 [G]	> 40	–	–
O=C(Nc1nc(Nc2ncnc3ccccc23)nn1-c1ccccc1)c1ccccc1 [I]	> 40	–	–
CN(C(=O)c1ccccc1)c1nc(N(C)C(=O)c2ccccc2)n(-c2ccccc2)n1 [J]	> 40	–	–
Cc1ccccc1-n1nc(NC(=O)c2ccccc2)nc1NC(=O)c1ccccc1 [M]	> 40	–	–
O=C(Nc1nc(-c2ccccn2)nn1-c1ccccc1)c1ccccc1 [T]	> 40	–	–
O=C(Nc1nc(Nc2nccc3ccccc23)n(-c2ccccc2)n1)c1ccccc1 [U]	> 40	–	–
CN(C(=O)c1ccccc1)c1nc(NC(=O)c2ccccc2)nn1-c1ccccc1 [V]	> 40	–	–
CCN(CC)c1nc(Nc2nc(NC(=O)c3ccccc3)nn2-c2ccccc2)c2ccccc2n1 [W]	> 40	–	–
CCN(CC)c1nc(Nc2nc(NC(=O)c3ccccc3)nn2-c2ccccc2)nc2ccccc12 [X]	> 40	–	–
O=C(Nc1nc(Nc2ncnc3ccccc23)n(-c2ccccc2)n1)c1ccco1 [Z]	> 40	45	–

Further lines, with some results ahead:

EC50 (Parkin) [µM]	half-life at 1 μM [1] [min]	SMILES	other results
> 40	3	O=C(Nc1nc(NC(=O)c2ccccc2)n(-c2ccc3c(c2)OCCO3)n1)c1ccccc1 [Compound E2]	–
> 40	39	O=C(Nc1nc(NC(=O)c2cccs2)nn1-c1ccccc1)c1ccccc1 [Compound G2]	–
–	16	Cc1ccccc1C(=O)Nc1nc(-c2ccccn2)nn1-c1ccc(OC(F)(F)F)cc1 [Compound H3]	–
> 40	50	O=C(Nc1nc(NC(=O)c2ccccc2)n(-c2ccc3ncccc3c2)n1)c1ccccc1 [Compound J2]	–
> 40	29	Cc1ccccc1C(=O)Nc1nc(NC(=O)c2cccs2)nn1-c1ccccc1 [Compound K2]	–
> 40	76	Cc1ccccc1C(=O)Nc1nc(-c2ccccn2)nn1-c1ccccc1 [Compound Q2]	–
–	133	Cc1ccccc1C(=O)Nc1nc(NC(=O)c2ccccc2C)n(-c2ccc(Cl)cc2)n1 [Compound Q3]	–
> 40	77	Cc1ccccc1C(=O)Nc1nc(Nc2ncnc3ccccc23)n(-c2ccccc2)n1 [Compound R2]	–
> 40	10.5	O=C(/C=C/c1ccccc1)Nc1nc(NC(=O)c2ccccc2)nn1-c1ccccn1 [Compound U1]	–
> 40	126	c1ccc(-n2nc(-c3ccccn3)nc2Nc2ncnc3ccccc23)cc1 [Compound U2]	–
> 40	110	O=C(Nc1nc(NC(=O)c2ccco2)n(-c2ccccc2)n1)c1ccccc1 [Compound W1]	–
> 40	–	Cc1ccccc1C(=O)Nc1nc(NC(=O)c2ccccc2C)n(-c2ccccn2)n1 [Compound X2]	–
> 40	< 1	O=C(Nc1nc(-c2ccccn2)nn1-c1ccccc1)c1ccccc1 [Compound Y1, N-(1-phenyl-3-(pyridin-2-yl)-1H-1,2,4-triazol-5-yl)benzamide]	–
> 40	19	O=C(Nc1nc(NC(=O)c2ccccc2)n(-c2ccc(OC(F)(F)F)cc2)n1)c1ccccc1 [Compound Z1]	–
